Data from patent publication US11186577B2, “Vasopressin receptor antagonists and products and methods related thereto” (BlackThorn Therapeutics, Inc., priority 2017, dated 2021).
Read-outs that look alike come from different tables or passages of the source.

Legend:
[1] = biological target: human Arginine Vasopressin Receptor 1a (AVPR1a) (Homo sapiens (Human), UniProt P37288); experiment: Vasopressin V1A receptor antagonist assay (AVP-evoked calcium, FLIPR, CHO-AVPR1a cells); format: cell-based
Method in brief: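 CHO cells expressing human AVPR1a, Calcium-6 dye loaded 60-90 min, preincubated with compound 15 min at 37° C., then challenged with AVP at its daily-determined EC80. FLIPR fluorescence; 10-point 1:3 series from 3 μM, duplicates.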

[2] = biological target: human Arginine Vasopressin Receptor 1b (AVPR1b) (Homo sapiens (Human), UniProt P47901); experiment: Vasopressin V1B receptor antagonist assay (AVP-evoked calcium, FLIPR, CHO-AVPR1b cells); format: cell-based
Method: The purpose of the assay is to determine the inhibitory effect of synthesized compounds on the Vasopressin V1b receptor. The assay was performed in Chinese Hamster Ovary (CHO) cells expressing the human Arginine Vasopressin Receptor 1b (AVPR1b). Arginine Vasopressin (AVP) evokes an increase in intracellular calcium in CHO-AVPR1b cells which is measured in a fluorescence assay on the FLIPR^TETRA using calcium sensitive dyes. Test compounds were assessed for their ability to affect the magnitude of the response to AVP, with antagonists showing a concentration-dependent reduction in the AVP-mediated fluorescence.
CHO-AVPR1b cells were maintained in routine culture in T175 Flasks at 37° C., 5% CO2. The growth medium consisted of Ham's F12 media supplemented with 10% v/v fetal bovine serum, 1× non-essential amino acids, and 0.4 mg/ml Geneticin G418.
Cells were harvested from T175 flasks when they were 80-90% confluent by first washing the cell monolayer with PBS and then dissociated using trypsin 0.05%/EDTA (3 mL for a T175 Flask). The flasks were incubated at room temperature until the cells detached. To the cell suspension, 10 ml of growth media was added and the cell density determined using the Vi-Cell automated cell counter. The cells were spun at 1000 rpm for 3 minutes, then the supernatant was carefully removed and discarded. The cell pellet was re-suspended at 6.0e^5 cells/ml in growth media. 25 μL of cells in growth media was dispensed into each well (15,000 cells per well) of a poly-D-lysine coated black, clear bottomed, 384-well plate. The plates were incubated at 37° C., 5% CO2 overnight.
At the start of each assay day, the potency of AVP is assessed and an EC80 concentration determined for subsequent compound profiling. Assays were performed using a two-step addition protocol on the FLIPR^TETRA; first addition of 5 μl of control or test compound at 10× final in assay buffer with 15 min incubation at 37° C., 5% CO2 followed by 10 μl of AVP at 6× final concentration in assay buffer. Changes in fluorescence were monitored for 3 min after both additions on the FLIPR^TETRA using 470-495 nm excitation and 515-575 nm emission wavelengths. The assay buffer consisted of HBSS (+Ca/+Mg) supplemented with 20 mM HEPES, and for the preparation of the AVP agonist only, 0.1% w/v bovine serum albumin. The assay was initiated by the removal of growth media from the cells and replacement with 45 μl of Calcium-6 dye (Molecular Devices) prepared at 1× in assay buffer. Cells were loaded with dye for 60-90 min at 37° C., 5% CO2 before initiation of the FLIPR^TETRA protocol. […] For compound profiling, test compounds were first serially diluted in DMSO (10-point curve, 1:3 dilutions) then diluted 33.3-fold in assay buffer prior to addition to the dye loaded cells on the FLIPR^TETRA. At the end of the incubation period 10 μl of AVP in assay buffer containing 0.1% BSA was added at the previously determined EC80 concentration.
In-plate controls for the assay include a Nelivaptan concentration-response curve as the reference V1b antagonist and an AVP concentration-response curve to confirm the reproducibility of the EC80 used for the compound challenge.

Chain of human Arginine Vasopressin Receptor 1b (AVPR1b) (P47901 whole entry): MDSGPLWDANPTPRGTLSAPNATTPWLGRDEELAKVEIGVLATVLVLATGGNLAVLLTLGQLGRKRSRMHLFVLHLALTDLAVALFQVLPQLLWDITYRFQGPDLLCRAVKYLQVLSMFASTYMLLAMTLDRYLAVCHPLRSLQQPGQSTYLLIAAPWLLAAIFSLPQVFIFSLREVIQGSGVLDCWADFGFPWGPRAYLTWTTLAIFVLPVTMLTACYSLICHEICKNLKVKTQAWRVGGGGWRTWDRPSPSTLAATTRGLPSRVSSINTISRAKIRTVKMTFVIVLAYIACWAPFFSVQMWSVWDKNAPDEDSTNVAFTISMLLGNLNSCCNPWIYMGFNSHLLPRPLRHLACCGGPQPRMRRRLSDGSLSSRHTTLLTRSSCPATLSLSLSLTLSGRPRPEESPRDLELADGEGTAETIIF
Chain of human Arginine Vasopressin Receptor 1a (AVPR1a) (P37288 whole entry): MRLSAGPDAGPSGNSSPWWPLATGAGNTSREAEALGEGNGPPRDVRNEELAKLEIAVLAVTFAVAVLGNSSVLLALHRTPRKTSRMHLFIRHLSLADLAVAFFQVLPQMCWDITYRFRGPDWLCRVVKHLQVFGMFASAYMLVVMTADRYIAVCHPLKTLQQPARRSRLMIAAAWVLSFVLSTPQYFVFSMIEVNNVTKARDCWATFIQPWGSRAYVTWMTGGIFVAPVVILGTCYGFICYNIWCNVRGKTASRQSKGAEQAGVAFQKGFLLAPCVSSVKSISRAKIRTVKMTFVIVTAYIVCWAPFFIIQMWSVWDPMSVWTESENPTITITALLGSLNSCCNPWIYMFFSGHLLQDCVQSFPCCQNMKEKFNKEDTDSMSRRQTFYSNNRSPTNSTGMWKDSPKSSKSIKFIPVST

| SMILES | IC50 ([1]; read-out: V1a IC50) | IC50 [2] | IC50 ([1]; in vitro antagonist assay, reference compounds, read-out: V1A IC50) | IC50 ([2]; in vitro antagonist assay, reference compounds) |
| --- | --- | --- | --- | --- |
| COC(=O)N1Cc2cc(Cl)ccc2-n2c(C3CC4(C3)CN(c3ncc(F)cn3)C4)nnc2C1C (single isomer, unassigned) [Cpd 170A] | < 0.1 µM | > 1 µM | – | – |
| COC(=O)N1Cc2cc(Cl)ccc2-n2c(C3CC4(C3)CN(c3ncccn3)C4)nnc2C1C (stereo not shown) [compound 166] | < 0.1 µM | > 1 µM | – | – |
| CN1Cc2cc(Cl)ccc2-n2c(nnc2[C@H]2CC[C@H](Oc3ccccn3)CC2)C1 [balovaptan, reference compound] | – | – | < 0.1 µM | > 1 µM |
| O=C(C(F)F)N1Cc2cc(Cl)ccc2-n2c(nnc2C2CC3(C2)CN(C(=O)C2(F)CC2)C3)C1 [compound 134] | < 0.1 µM | > 1 µM | – | – |
| CC(C)OC(=O)N1Cc2cc(Cl)ccc2-n2c(C3CC4(C3)CN(c3ncccn3)C4)nnc2C1C (single isomer, unassigned) [Cpd 167A] | 0.1 to 0.5 µM | > 1 µM | – | – |
| CN1Cc2cc(Cl)ccc2-n2c(nnc2C2CC3(C2)CN(c2ccc(F)cn2)C3)C1 [compound 1, 8-chloro-1-(2-(5-fluoropyridin-2-yl)-2-azaspiro[3.3]heptan-6-yl)-5-methyl-5,6-dihydro-4H-benzo[f][1,2,4]triazolo[4,3-a][1,4]diazepine] | < 0.1 µM | > 1 µM | – | – |
| CC1c2nnc(C3CC4(C3)CN(c3ncccn3)C4)n2-c2ccc(Cl)cc2CN1C(=O)C1(F)CC1 (stereo not shown) [compound 175] | < 0.1 µM | > 1 µM | – | – |
| CC(C)N1Cc2cc(Cl)ccc2-n2c(nnc2C2CC3(C2)CN(c2cnccn2)C3)C1 [compound 47] | < 0.1 µM | > 1 µM | – | – |
| COC(=O)N1Cc2cc(Cl)ccc2-n2c(C3CC4(C3)CN(c3ccc(F)cn3)C4)nnc2C1C (single isomer, unassigned) [Cpd 142B] | 0.5 to 1 µM | > 1 µM | – | – |
| CCOC(=O)N1Cc2cc(Cl)ccc2-n2c(C3CC4(C3)CN(c3ncccn3)C4)nnc2C1C (single isomer, unassigned) [Cpd 168A] | < 0.1 µM | > 1 µM | – | – |
| O=C(C1CC1)N1CC2(CC(c3nnc4n3-c3ccc(Cl)cc3CN(C(=O)C3(F)CC3)C4)C2)C1 [compound 136] | < 0.1 µM | > 1 µM | – | – |
| CCOC(=O)N1Cc2cc(Cl)ccc2-n2c(C3CC4(C3)CN(c3ncc(F)cn3)C4)nnc2C1C (stereo not shown) [compound 172] | < 0.1 µM | > 1 µM | – | – |
| COC(=O)N1Cc2cc(Cl)ccc2-n2c(nnc2C2CC3(C2)CN(c2ccccn2)C3)C1 [compound 70] | < 0.1 µM | > 1 µM | – | – |
| CN1Cc2cc(Cl)ccc2-n2c(nnc2C2CC3(C2)CN(c2cnccn2)C3)C1 [compound 3] | < 0.1 µM | > 1 µM | – | – |
| FC(F)CN1Cc2cc(Cl)ccc2-n2c(nnc2C2CC3(C2)CN(c2ccccn2)C3)C1 [compound 52] | < 0.1 µM | > 1 µM | – | – |
| CC(C)OC(=O)N1Cc2cc(Cl)ccc2-n2c(C3CC4(C3)CN(c3ncc(F)cn3)C4)nnc2C1C (single isomer, unassigned) [Cpd 201A] | < 0.1 µM | > 1 µM | – | – |
| CC(C)OC(=O)N1Cc2cc(Cl)ccc2-n2c(C3CC4(C3)CN(c3ncccn3)C4)nnc2C1C (stereo not shown) [compound 167] | < 0.1 µM | > 1 µM | – | – |
| CC1c2nnc(C3CC4(C3)CN(c3ccc(F)cn3)C4)n2-c2ccc(Cl)cc2CN1C(=O)OC1CC1 (single isomer, unassigned) [Cpd 191A] | < 0.1 µM | > 1 µM | – | – |
| CC(C)N1Cc2cc(Cl)ccc2-n2c(nnc2C2CC3(C2)CN(c2ncccc2F)C3)C1 [compound 54] | < 0.1 µM | > 1 µM | – | – |
| CC1c2nnc(C3CC4(C3)CN(c3ncccn3)C4)n2-c2ccc(Cl)cc2CN1C(=O)OC(CF)CF (single isomer, unassigned) [Cpd 202A] | < 0.1 µM | > 1 µM | – | – |
| COC(=O)N1Cc2cc(Cl)ccc2-n2c(C3CC4(C3)CN(c3cnccn3)C4)nnc2C1C (single isomer, unassigned) [Cpd 165A] | < 0.1 µM | > 1 µM | – | – |
| CC1c2nnc(C3CC4(C3)CN(c3ccc(F)cn3)C4)n2-c2ccc(Cl)cc2CN1C(=O)C1(F)CC1 (single isomer, unassigned) [Cpd 174A] | < 0.1 µM | > 1 µM | – | – |

| SMILES | IC50 ([1]; read-out: V1a IC50) | IC50 [2] | IC50 ([1]; in vitro antagonist assay, reference compounds, read-out: V1A IC50) | IC50 ([2]; in vitro antagonist assay, reference compounds) |
| --- | --- | --- | --- | --- |
| CC(C)OC(=O)N1Cc2cc(Cl)ccc2-n2c(C3CC4(C3)CN(c3cnccn3)C4)nnc2C1C (stereo not shown) [compound 164] | < 0.1 µM | > 1 µM | – | – |
| O=C(N1Cc2cc(Cl)ccc2-c2c(C3CC4(C3)CN(c3cccnn3)C4)noc2C1)C(F)(F)F [compound 105] | < 0.1 µM | > 1 µM | – | – |
| CCN1Cc2cc(Cl)ccc2-n2c(nnc2C2CC3(C2)CN(c2ccccn2)C3)C1 [compound 45] | < 0.1 µM | > 1 µM | – | – |
| O=C(C(F)F)N1Cc2cc(Cl)ccc2-n2c(nnc2C2CC3(C2)CN(c2ccccn2)C3)C1 [compound 122] | < 0.1 µM | > 1 µM | – | – |
| CCOC(=O)N1Cc2cc(Cl)ccc2-n2c(C3CC4(C3)CN(c3ccc(F)cn3)C4)nnc2C1C (stereo not shown) [compound 169] | < 0.1 µM | > 1 µM | – | – |
| CC1c2nnc(C3CC4(C3)CN(c3ccccn3)C4)n2-c2ccc(Cl)cc2CN1C(=O)C1(F)CC1 (single isomer, unassigned) [Cpd 181A] | < 0.1 µM | > 1 µM | – | – |
| CC(=O)N1Cc2cc(Cl)ccc2-n2c(nnc2C2CC3(C2)CN(c2ccc(F)cn2)C3)C1 [compound 64] | < 0.1 µM | > 1 µM | – | – |
| CN1Cc2cc(Cl)ccc2-n2c(nnc2C2CC3(C2)CN(c2ccccn2)C3)C1 [compound 2] | < 0.1 µM | > 1 µM | – | – |
| Clc1ccc2c(c1)CN(C1CCC1)Cc1nnc(C3CC4(C3)CN(c3ccccn3)C4)n1-2 [compound 41] | < 0.1 µM | > 1 µM | – | – |
| CCN1Cc2cc(Cl)ccc2-n2c(nnc2C2CC3(C2)CN(c2ccc(F)cn2)C3)C1 [compound 49] | < 0.1 µM | > 1 µM | – | – |
| CC1c2nnc(C3CC4(C3)CN(c3ncccn3)C4)n2-c2ccc(Cl)cc2CN1C(=O)OC1CC1 (single isomer, unassigned) [Cpd 171B] | 0.5 to 1 µM | > 1 µM | – | – |
| COC(=O)N1Cc2cc(Cl)ccc2-n2c(C3CC4(C3)CN(c3ncc(F)cn3)C4)nnc2C1C (stereo not shown) [compound 170] | < 0.1 µM | > 1 µM | – | – |
| Clc1ccc2c(c1)CN(C1CC1)Cc1nnc(C3CC4(C3)CN(c3ccccn3)C4)n1-2 [compound 56] | < 0.1 µM | > 1 µM | – | – |
| CN1Cc2cc(Cl)ccc2-n2c(nnc2C2CC3(C2)CN(C(=O)C2CC2)C3)C1 [compound 28] | < 0.1 µM | > 1 µM | – | – |
| CC(CF)OC(=O)N1Cc2cc(Cl)ccc2-n2c(nnc2C2CC3(C2)CN(c2ccc(F)cn2)C3)C1 (stereo not shown) [compound 78] | < 0.1 µM | > 1 µM | – | – |
| CCC(=O)N1Cc2cc(Cl)ccc2-n2c(nnc2C2CC3(C2)CN(c2ccc(F)cn2)C3)C1 [compound 72] | < 0.1 µM | > 1 µM | – | – |
| CCOC(=O)N1Cc2cc(Cl)ccc2-n2c(C3CC4(C3)CN(c3ncccn3)C4)nnc2C1C (stereo not shown) [compound 168] | < 0.1 µM | > 1 µM | – | – |
| CC(C)C(=O)N1Cc2cc(Cl)ccc2-n2c(nnc2C2CC3(C2)CN(c2ccc(F)cn2)C3)C1 [compound 63] | < 0.1 µM | > 1 µM | – | – |
| CC1c2nnc(C3CC4(C3)CN(c3ncccn3)C4)n2-c2ccc(Cl)cc2CN1C(=O)OC1CC1 (stereo not shown) [compound 171] | < 0.1 µM | > 1 µM | – | – |
| FCCN1Cc2cc(Cl)ccc2-n2c(nnc2C2CC3(C2)CN(c2ccccn2)C3)C1 [compound 59] | < 0.1 µM | > 1 µM | – | – |
| CC1c2nnc(C3CC4(C3)CN(c3ncc(F)cn3)C4)n2-c2ccc(Cl)cc2CN1C(=O)OC(CF)CF (stereo not shown) [compound 194] | < 0.1 µM | > 1 µM | – | – |
| CC1c2nnc(C3CC4(C3)CN(c3ccc(F)cn3)C4)n2-c2ccc(Cl)cc2CN1C (single isomer, unassigned) [Cpd 179A] | < 0.1 µM | > 1 µM | – | – |
